Source: patent US20260076982A1, “Prodrugs of Cannbidiol [CBD]-Type Phytocannabinoids and a Process for Preparation Thereof” (priority 2022, published 2026)

What was measured:
[1] = Ex vivo human plasma stability / release kinetic study of CBD prodrugs; format: in vitro ADME; conditions: human blood plasma with citrate buffer; for prodrug left after 24 h / concentration of cannabidiol (B1) released from prodrug after 24 h / concentration of cannabidiol (B1) at start of release: 37° C.; for stability / conversion of prodrug in plasma: over 24 h; for concentration of cannabidiol (B1) released from prodrug after 24 h: HPLC; for concentration of cannabidiol (B1) at start of release: initial value of the release range
Protocol: For the preparation of citrate buffer solution (pH=7.6), 100 ml of HPLC water, 0.25 M sucrose and 40 mM sodium citrate were taken.
To construct a calibration curve, […] different concentration such as 0.78, 1.56, 3.12, 6.25, 12.5, 25, 50 mg/ml of CBD based prodrugs and the parent cannabidiol were prepared. All sample were analyzed by 4.6×250 mm, 5 μm end capped RP-C18 column and the mobile phase containing buffer (0.1% formic acid in water and 0.1% formic acid in acetonitrile) and in some case methanol were used at the flow rate of 1 mL/min at column temperature of 25° C. at 210 nm, 190 nm, 254 nm wavelength range. A volume of 10 μL was injected and a total run time of the assay range was between 15-40 mins. The markers were estimated by HPLC using gradient technique.
For the preparation of plasma sample, fresh 20 ml of human blood was taken to which 2 ml of citrate buffer was added and then vortex it for about 5 minutes. Immediately after this, the mixture was centrifuged at 8000 rpm for 20 minutes, resulting in the separation of two-layer like RBC and plasma (ethical approval number 1EC/GMC/Cat A/2020/267).
To check the stability of prodrugs in plasma, stock solution of prodrug in DMSO (5 mg/2 ml) was prepared and placed at −20° C. The plasma sample of 50 μl was taken in different eppendorf's followed by the addition of 5 μl prodrug solution, vertex for 2 min., incubated at 37° C. at the different time point (Schedule provided in Table 1). After 24 h, all the sample were added with 200 μl MeOH with the help of vertex for about 2 minutes followed by centrifuge for about 10 minutes with 4000 rpm and two layers of sample were separated. The upper layer of methanol sample was taken and immediately the methanol sample was analyzed by 4.6×250 mm, 5 μm end capped RP-C18 column and the mobile phase containing buffer (0.1% formic acid in water and 0.1% formic acid in acetonitrile) and in some case methanol were used at the flow rate of 1 mL/min at column temperature of 25° C. at 210 nm, 190 nm, 254 nm wavelength range. A volume of 10 μL was injected and a total run time of the assay range was 15-40 mins. The markers were estimated by HPLC using gradient technique. The results are depicted in FIG. 1 to FIG. 10.

[2] = published studies; cited from earlier work

| SMILES | prodrug left after 24 h [1] | concentration of prodrug at the initial time point (Pre-treatment) [1] [%] | stability / conversion of prodrug in plasma [1] | also measured |
| --- | --- | --- | --- | --- |
| C=C(C)[C@@H]1CCC(C)=C[C@H]1c1c(O)cc(CCCCC)cc1OC(=O)CN1CCOCC1 [Compound A1a, O-(2-morpholinoacetyl) cannabidiol] | 5.5% | 49.1 | – | – |
| C=C(C)[C@@H]1CCC(C)=C[C@H]1c1c(OC(=O)CN2CCOCC2)cc(CCCCC)cc1OC(=O)CN1CCOCC1 [Compound A1b, O,O-bis-(2-morpholinoacetyl) cannabidiol] | – | – | immediately converted into mono substituted CBD derivative | – |
| C=C(C)[C@@H]1CCC(C)=C[C@H]1c1c(O)cc(CCCCC)cc1OC(=O)CN1CCC(c2ccccc2)CC1 [Compound A2a, O-{2-(4-phenylpiperidin-1-yl)acetyl} cannabidiol] | – | – | quite stable | – |
| C=C(C)[C@@H]1CCC(C)=C[C@H]1c1c(O)cc(CCCCC)cc1OC(=O)CN1CCC(O)CC1 [Compound A3a, O-{2-(4-hydroxypiperidin-1-yl)acetyl} cannabidiol] | below detection limit | 49.2 | – | – |
| C=C(C)[C@@H]1CCC(C)=C[C@H]1c1c(O)cc(CCCCC)cc1OC(=O)CN1CCN(C2CC2)CC1 [Compound A5a, O-{2-(4-cyclopropylpiperazin-1-yl)acetyl} cannabidiol] | 11.1% | 51.4 | – | concentration of cannabidiol (B1) released from prodrug after 24 h [1]: 17.4%; concentration of cannabidiol (B1) at start of release [1]: 0% |
| C=C(C)[C@@H]1CCC(C)=C[C@H]1c1c(OC(=O)CN2CCN(C3CC3)CC2)cc(CCCCC)cc1OC(=O)CN1CCN(C2CC2)CC1 [Compound A5b, O,O-bis-{2-(4-cyclopropylpiperazin-1-yl)acetyl} cannabidiol] | – | – | immediately converted into mono substituted CBD derivative | time after which release of CBD (B1) started [1]: > 16 h; concentration of cannabidiol (B1) released from prodrug after 24 h [1]: 8.8% |
| C=C(C)[C@@H]1CCC(C)=C[C@H]1c1c(O)cc(CCCCC)cc1OC(=O)CN1CCN(C(C)C)CC1 [Compound A6a, O-{2-(4-isopropylpiperazin-1-yl)acetyl} cannabidiol] | 11.1% | 51.3 | – | concentration of cannabidiol (B1) released from prodrug after 24 h [1]: 26.8%; concentration of cannabidiol (B1) at start of release [1]: 0.6% |
| C=C(C)[C@@H]1CCC(C)=C[C@H]1c1c(O)cc(CCCCC)cc1OC(=O)CN1CCN(C)CC1 [Compound A7a, O-{2-(4-methylpiperazin-1-yl)acetyl} cannabidiol] | 0.7% | 49.6 | – | – |
| C=C(C)[C@@H]1CCC(C)=C[C@H]1c1c(O)cc(CCCCC)cc1OC(=O)CN1CCN(c2ccccc2)CC1 [Compound A8a, O-{2-(4-phenylpiperazin-1-yl)acetyl} cannabidiol] | – | – | quite stable | – |
| C=C(C)[C@@H]1CCC(C)=C[C@H]1c1c(O)cc(CCCCC)cc1OC(=O)CN1CCCC1 [Compound A10a, O-{2-(pyrrolidin-1-yl)acetyl} cannabidiol] | 1.9% | 51.3 | – | – |
| C=C(C)[C@@H]1CCC(C)=C[C@H]1c1c(O)cc(CCCCC)cc1O [Compound B1, cannabidiol] | – | – | – | plasma protein binding [2]: > 94% |
